“And” between values parts separate entries of the source, which are not always exact repeats. Equal entries are not always repeated.
Tests used:
[1] = target: PDK1 (Homo sapiens, UniProt O15530); test: Kinase selectivity profiling; assay type: biochemical; conditions: read-out: Percentage inhibition of PDK1
Protocol: (§1) The selectivity of compounds against a panel of 50 human protein kinases was assessed using a non-radiometric assay.

[2] = target: MET (Homo sapiens, UniProt P08581); test: Kinase selectivity profiling, Hepatocyte growth factor receptor; assay type: biochemical; conditions: read-out: Percentage inhibition of MET
Sequence of MET (P08581 25-1390): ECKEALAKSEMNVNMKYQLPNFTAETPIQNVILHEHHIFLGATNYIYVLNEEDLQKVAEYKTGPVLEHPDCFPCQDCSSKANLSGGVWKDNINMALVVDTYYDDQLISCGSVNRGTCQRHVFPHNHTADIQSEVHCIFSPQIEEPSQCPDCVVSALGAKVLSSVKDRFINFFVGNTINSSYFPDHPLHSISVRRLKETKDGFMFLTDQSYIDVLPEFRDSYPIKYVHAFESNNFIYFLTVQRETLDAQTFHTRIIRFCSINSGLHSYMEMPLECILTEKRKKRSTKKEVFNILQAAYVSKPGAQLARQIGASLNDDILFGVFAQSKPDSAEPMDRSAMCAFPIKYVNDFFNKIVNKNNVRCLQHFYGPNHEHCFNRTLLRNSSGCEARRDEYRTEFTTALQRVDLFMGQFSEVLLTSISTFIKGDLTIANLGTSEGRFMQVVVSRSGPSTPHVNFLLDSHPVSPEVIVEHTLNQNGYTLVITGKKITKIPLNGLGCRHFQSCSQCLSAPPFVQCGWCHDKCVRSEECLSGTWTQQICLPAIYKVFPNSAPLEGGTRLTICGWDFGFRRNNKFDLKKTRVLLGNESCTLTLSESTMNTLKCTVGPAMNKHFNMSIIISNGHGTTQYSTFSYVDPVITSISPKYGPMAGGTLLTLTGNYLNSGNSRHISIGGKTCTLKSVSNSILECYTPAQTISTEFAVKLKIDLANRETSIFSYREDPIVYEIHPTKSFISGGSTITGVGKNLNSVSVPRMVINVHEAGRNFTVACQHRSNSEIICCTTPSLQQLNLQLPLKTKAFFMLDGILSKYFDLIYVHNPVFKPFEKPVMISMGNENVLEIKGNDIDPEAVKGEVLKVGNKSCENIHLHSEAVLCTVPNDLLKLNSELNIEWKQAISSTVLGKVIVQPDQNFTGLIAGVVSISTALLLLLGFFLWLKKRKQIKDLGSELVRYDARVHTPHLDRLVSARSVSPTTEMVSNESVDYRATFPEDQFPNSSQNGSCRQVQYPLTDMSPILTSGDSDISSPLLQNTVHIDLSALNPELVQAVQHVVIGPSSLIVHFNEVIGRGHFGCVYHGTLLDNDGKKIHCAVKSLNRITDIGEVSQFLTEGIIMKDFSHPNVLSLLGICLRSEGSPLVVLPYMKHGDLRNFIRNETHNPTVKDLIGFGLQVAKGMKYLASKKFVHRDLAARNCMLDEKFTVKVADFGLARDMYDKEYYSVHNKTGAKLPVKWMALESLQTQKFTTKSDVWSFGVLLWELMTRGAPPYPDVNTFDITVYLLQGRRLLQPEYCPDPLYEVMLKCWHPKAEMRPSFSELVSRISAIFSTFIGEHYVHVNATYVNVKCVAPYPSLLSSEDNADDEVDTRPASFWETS
Protocol: as §1

[3] = target: HGK (Homo sapiens, UniProt O95819); test: Kinase selectivity profiling, Hematopoietic progenitor kinase; assay type: biochemical; conditions: 0.1 µM inhibitor, ATP at Km; for inhibition at 0.1 µM: read-out: Percentage inhibition of HGK
Sequence of HGK (O95819 whole entry): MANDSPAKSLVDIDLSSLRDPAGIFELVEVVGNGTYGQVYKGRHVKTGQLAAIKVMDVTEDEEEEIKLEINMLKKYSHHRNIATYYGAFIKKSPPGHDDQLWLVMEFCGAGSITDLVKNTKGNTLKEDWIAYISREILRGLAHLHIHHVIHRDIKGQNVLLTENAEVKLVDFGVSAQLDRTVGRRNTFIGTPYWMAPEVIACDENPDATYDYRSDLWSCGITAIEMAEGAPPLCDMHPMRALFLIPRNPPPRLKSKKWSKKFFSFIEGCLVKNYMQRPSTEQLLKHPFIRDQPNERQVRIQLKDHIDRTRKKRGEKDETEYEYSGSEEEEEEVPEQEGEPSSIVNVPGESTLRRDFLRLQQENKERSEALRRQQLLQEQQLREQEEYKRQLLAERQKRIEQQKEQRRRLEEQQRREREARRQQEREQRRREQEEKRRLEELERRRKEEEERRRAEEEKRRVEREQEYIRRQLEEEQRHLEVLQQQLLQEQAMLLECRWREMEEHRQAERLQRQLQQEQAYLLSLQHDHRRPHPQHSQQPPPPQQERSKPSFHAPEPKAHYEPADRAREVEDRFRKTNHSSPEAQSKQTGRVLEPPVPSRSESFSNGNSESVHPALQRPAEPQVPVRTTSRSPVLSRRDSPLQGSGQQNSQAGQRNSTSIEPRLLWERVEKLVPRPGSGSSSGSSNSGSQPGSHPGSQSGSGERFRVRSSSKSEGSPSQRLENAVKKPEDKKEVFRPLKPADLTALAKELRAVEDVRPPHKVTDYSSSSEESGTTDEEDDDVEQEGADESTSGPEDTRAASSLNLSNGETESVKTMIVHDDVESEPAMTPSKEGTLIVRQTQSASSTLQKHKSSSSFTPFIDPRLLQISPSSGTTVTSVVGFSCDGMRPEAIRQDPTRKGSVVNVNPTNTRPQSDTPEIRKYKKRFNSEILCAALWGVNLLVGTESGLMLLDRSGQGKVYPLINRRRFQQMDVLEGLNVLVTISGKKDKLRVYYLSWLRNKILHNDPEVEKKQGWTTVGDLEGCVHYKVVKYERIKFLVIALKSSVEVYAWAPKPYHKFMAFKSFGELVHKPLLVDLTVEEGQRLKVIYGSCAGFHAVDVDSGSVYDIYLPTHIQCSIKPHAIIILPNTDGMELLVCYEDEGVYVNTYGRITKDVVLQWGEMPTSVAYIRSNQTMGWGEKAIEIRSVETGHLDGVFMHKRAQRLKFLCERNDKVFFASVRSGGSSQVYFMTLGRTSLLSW
Protocol: as §1

[4] = target: JNK2 (Homo sapiens, UniProt P45984); test: Kinase selectivity profiling, c-Jun kinase 2; assay type: biochemical; conditions: read-out: Percentage inhibition of JNK2
Sequence of JNK2 (P45984 whole entry): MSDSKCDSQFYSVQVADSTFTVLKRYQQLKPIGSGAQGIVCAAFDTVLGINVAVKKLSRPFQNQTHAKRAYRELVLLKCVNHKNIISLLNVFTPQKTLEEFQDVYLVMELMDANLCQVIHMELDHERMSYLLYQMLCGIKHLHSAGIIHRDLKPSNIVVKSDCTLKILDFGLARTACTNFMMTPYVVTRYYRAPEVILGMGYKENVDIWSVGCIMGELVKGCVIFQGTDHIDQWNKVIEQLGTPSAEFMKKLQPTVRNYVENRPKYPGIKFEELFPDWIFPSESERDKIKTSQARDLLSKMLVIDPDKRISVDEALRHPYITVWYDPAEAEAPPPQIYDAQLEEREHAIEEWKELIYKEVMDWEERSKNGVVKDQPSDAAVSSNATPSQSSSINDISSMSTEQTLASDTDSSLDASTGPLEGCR
Protocol: as §1

[5] = target: T1, JAK3 (Homo sapiens, UniProt P52333); test: Kinase selectivity profiling, Janus kinase 3; assay type: biochemical; conditions: 0.1 µM inhibitor, ATP at Km; for inhibition at 0.1 µM: read-out: Percentage inhibition of JAK3
T1 sequence (P52333 1-1124): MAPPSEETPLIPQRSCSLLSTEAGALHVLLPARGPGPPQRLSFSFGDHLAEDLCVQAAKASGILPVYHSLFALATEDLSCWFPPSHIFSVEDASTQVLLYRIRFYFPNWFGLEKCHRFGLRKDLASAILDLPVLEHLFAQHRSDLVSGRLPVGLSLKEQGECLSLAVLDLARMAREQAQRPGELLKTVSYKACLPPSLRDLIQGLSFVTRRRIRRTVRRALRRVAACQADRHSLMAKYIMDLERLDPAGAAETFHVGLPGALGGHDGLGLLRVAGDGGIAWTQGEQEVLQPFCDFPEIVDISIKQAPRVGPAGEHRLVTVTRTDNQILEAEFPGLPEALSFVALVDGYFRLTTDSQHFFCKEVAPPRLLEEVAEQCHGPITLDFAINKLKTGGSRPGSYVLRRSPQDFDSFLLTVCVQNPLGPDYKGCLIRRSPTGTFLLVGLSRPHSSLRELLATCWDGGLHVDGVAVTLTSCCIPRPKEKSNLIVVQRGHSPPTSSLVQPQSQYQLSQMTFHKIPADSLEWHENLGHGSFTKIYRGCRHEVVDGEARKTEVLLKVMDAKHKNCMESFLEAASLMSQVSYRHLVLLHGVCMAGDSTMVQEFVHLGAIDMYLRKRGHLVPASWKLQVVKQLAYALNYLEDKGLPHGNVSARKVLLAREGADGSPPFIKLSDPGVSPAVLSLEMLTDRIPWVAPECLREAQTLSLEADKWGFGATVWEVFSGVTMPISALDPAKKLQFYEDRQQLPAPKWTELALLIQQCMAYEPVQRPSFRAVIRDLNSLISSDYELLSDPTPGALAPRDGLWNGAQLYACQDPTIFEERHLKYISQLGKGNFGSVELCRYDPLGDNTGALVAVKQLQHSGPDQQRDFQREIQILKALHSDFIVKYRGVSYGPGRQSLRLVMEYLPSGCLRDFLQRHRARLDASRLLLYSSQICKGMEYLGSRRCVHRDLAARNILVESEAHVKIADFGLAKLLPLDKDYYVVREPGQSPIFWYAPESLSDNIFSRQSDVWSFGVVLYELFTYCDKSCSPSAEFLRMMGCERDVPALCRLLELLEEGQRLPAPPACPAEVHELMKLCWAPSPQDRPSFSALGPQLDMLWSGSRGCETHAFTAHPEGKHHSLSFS
Protocol: as §1

[6] = system: patient-derived colorectal cancer spheroids #6; test: ATP production of patient-derived spheroid #6; assay type: cell-based; conditions: Homo sapiens, 72 h; spheroid #6, 3 days
Protocol: (§2) Cells were seeded at a density of 3,000 cells per well in 96-well plates. Twenty-four hours after seeding, the cells were exposed to serially diluted compounds (0.003, 0.01, 0.03, 0.1, 0.3, 1, 3 and 10 μM) and incubated for 72 h (Fig. 3a). Patient-derived colorectal cancer spheroids were dissociated into single cells with Accutase (Nacalai Tesque) and seeded at a density of 3,000 cells per well into Ultra-Low attachment multiwall 96-well plates (Corning; Fig. 6d). ATP was measured with a CellTiter-Glo Luminescent Cell Viability Assay kit (Promega). Experiments were performed in triplicate and repeated at least two times.

[7] = target: DYRK1B (Homo sapiens, UniProt Q9Y463); test: Kinase selectivity profiling, Dual-specificity tyrosine-phosphorylation regulated kinase 1B; assay type: biochemical; conditions: read-out: Percentage inhibition of DYRK1B
Protocol: as §1

[8] = system: HCT116 cells; test: Cell cycle analysis by flow cytometry; assay type: cell-based, human; conditions: HCT116, 3 μM
Protocol: Cells were dissociated with Accutase, fixed with 70% EtOH at −20 °C, stained with Guava Cell Cycle reagent (Merck-Millipore) in accordance with the manufacturer's instructions, and analysed using a Guava easy Cyte HT flow cytometer (Merck-Millipore). Cell doublets were eliminated by doublet discrimination gating. Data were analyzed using FLOWJO version 10 software (Treestar; Fig. 3e). Experiments were performed in triplicate and repeated at least two times.

[9] = target: PYK2 (Homo sapiens, UniProt Q14289); test: Kinase selectivity profiling, Proline-rich tyrosine kinase 2; assay type: biochemical; conditions: read-out: Percentage inhibition of PYK2
Sequence of PYK2 (Q14289 whole entry): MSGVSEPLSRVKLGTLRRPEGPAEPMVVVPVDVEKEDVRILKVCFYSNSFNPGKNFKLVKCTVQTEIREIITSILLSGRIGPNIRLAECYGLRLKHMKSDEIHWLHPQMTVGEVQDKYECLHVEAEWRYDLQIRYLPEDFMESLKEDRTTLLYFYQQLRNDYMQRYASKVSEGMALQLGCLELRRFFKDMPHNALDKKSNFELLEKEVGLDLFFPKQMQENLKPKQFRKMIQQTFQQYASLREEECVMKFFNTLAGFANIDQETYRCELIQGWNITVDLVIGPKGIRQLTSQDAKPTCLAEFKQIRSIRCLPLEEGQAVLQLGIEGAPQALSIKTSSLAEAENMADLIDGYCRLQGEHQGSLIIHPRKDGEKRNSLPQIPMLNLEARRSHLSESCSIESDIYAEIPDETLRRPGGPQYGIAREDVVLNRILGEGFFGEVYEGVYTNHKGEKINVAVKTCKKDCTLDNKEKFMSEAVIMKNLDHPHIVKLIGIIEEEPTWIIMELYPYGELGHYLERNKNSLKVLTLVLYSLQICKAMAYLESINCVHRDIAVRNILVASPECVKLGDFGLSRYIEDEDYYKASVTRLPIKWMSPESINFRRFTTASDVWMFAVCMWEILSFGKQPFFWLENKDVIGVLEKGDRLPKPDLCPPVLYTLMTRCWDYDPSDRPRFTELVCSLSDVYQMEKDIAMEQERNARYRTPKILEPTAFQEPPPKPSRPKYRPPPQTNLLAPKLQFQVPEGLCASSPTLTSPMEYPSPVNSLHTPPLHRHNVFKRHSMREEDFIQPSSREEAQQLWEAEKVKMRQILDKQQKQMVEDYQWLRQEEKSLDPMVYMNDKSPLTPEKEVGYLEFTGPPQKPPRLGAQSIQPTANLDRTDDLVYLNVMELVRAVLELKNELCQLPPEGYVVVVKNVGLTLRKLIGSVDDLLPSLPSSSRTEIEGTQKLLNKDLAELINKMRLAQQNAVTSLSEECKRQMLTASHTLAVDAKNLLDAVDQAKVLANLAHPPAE
Protocol: as §1

[10] = system: HCT116 cells; test: Drug sensitivity assay, ATP production, 2D culture; assay type: cell-based; conditions: Homo sapiens, HCT-116; HCT116, 2D culture, 72 h; read-out: IC50, ATP production (cell growth)
Protocol: as §2

[11] = target: CK1ε (Homo sapiens, UniProt P49674); test: Kinase selectivity profiling, Casein kinase 1ε; assay type: biochemical; conditions: read-out: Percentage inhibition of CK1ε
Protocol: as §1

[12] = system: DLD-1 cells; test: In vivo tumorigenicity of pretreated DLD-1 cells in NOD/ShiJic-scid mice; design: species or system mouse; conditions: DLD-1, short-term in vitro treatment
Protocol: (§3) After washing off the compounds, 10,000, 1,000, 100 or 10 viable cells in culture medium containing 50% Matrigel (BD Biosciences) were injected subcutaneously into the flanks of NOD/ShiJic-scid Jcl (6-week-old male) mice. The number of mice that developed tumours was counted, and the frequency of cells with tumour-forming capability was calculated using the ELDA software.

[13] = target: IRAK4 (Homo sapiens, UniProt Q9NWZ3); test: Kinase selectivity profiling, Interleukin 1 receptor-associated kinase 4; assay type: biochemical; conditions: read-out: Percentage inhibition of IRAK4
Protocol: as §1

[14] = target: SGK (Homo sapiens, UniProt O00141); test: Kinase selectivity profiling, Serum/glucocorticoid regulated kinase; assay type: biochemical; conditions: read-out: Percentage inhibition of SGK
Protocol: as §1

[15] = target: FLT3 (Homo sapiens, UniProt P36888); test: Kinase selectivity profiling, Fms-related tyrosine kinase 3; assay type: biochemical; conditions: 0.1 µM inhibitor, ATP at Km
Sequence of FLT3 (P36888 27-993): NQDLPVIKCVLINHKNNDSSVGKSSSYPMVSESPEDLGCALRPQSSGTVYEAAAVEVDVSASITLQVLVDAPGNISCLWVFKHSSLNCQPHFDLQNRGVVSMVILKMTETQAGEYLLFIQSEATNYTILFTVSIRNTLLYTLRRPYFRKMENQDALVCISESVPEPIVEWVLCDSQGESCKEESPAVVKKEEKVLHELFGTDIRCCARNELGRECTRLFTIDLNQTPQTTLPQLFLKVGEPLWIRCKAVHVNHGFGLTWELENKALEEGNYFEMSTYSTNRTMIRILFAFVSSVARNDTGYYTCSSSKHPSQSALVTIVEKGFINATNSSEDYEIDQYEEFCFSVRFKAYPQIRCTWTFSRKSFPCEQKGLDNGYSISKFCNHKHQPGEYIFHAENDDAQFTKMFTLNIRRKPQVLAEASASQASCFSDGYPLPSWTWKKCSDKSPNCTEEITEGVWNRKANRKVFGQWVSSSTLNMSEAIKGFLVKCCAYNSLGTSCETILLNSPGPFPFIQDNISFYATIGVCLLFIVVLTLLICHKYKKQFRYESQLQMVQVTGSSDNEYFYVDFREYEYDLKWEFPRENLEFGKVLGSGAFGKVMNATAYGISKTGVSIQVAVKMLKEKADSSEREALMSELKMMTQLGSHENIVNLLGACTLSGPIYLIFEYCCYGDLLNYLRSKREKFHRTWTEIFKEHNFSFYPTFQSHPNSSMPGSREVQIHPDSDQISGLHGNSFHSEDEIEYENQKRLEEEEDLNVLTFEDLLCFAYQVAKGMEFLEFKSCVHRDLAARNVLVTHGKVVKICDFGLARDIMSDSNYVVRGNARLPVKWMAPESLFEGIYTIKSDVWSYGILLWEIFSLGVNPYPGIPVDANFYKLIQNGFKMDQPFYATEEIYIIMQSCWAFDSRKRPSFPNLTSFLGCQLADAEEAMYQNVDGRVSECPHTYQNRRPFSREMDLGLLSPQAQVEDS
Protocol: as §1

[16] = system: HCT116 cells; test: In vivo tumorigenicity of pretreated HCT116 cells in NOD/ShiJic-scid mice; design: species or system mouse; conditions: HCT116, short-term in vitro treatment
Protocol: as §3

Row | SMILES | inhibition at 0.1 µM [1] [%] | inhibition at 0.1 µM [2] [%] | inhibition at 0.1 µM [3] [%] | inhibition at 0.1 µM [4] [%] | inhibition at 0.1 µM [5] [%] | IC50 [6] [nM] | inhibition at 0.1 µM [7] [%] | >4N (%) ([8]; 24 h) | G0/G1 (%) ([8]; 24 h) | G2/M (%) ([8]; 24 h) | S (%) ([8]; 24 h) | SubG1 (%) ([8]; 24 h) | >4N (%) ([8]; 48 h) | G0/G1 (%) ([8]; 48 h) | G2/M (%) ([8]; 48 h) | S (%) ([8]; 48 h) | SubG1 (%) ([8]; 48 h) | inhibition at 0.1 µM [9] [%] | IC50 [10] [nM] | inhibition at 0.1 µM [11] [%] | also measured
1 | O[C@H]1CC[C@@H](Oc2cccc3cnc(Nc4ccc5nc[nH]c5c4)nc23)CC1 [NCB-0846, cis-4-(2-(3H-benzo[d]imidazol-5-ylamino)quinazolin-8-yloxy)cyclohexanol] | 2.4 | 42.1 | > 80 | 0.3 | > 80 | 680 | 8.9 | 6.1 | 20.6 | 30.6 | 14.1 | 28.6 | 3.1 | 18.3 | 20.1 | 11.1 | 47.4 | 73 | 360 | -2.8 | Percentage inhibition of HGK ([3]; 0.1 µM): 80.5%; Percentage inhibition of JAK3 ([5]; 0.1 µM): 96.3%; tumour formation [12]: significantly reduced; inhibition at 0.1 µM [13]: 14.7%; inhibition at 0.1 µM [14]: 14.7%; Percentage inhibition of FLT3 ([15]; 0.1 µM): > 80% and 104.1%; tumour formation [16]: significantly reduced
2 | O[C@H]1CC[C@H](Oc2cccc3cnc(Nc4ccc5nc[nH]c5c4)nc23)CC1 [NCB-0970] | -0.8 | 16.1 | 21.8 | -3 | 85.4 | > 3000 | -2.4 | 9.1 | 24.5 | 35.8 | 10.7 | 20 | 8.5 | 21 | 40.3 | 10.7 | 19.5 | 23.6 | 2400 | -1.6 | tumour formation [12]: not; inhibition at 0.1 µM [13]: 6.3%; inhibition at 0.1 µM [14]: 6.6%; inhibition at 0.1 µM ([15]; read-out: Percentage inhibition of FLT3): 102%; tumour formation [16]: not

From paper PMC5007443, “TNIK inhibition abrogates colorectal cancer stemness” (Nature Communications, 2016)
